# Measurements: patent US8178552B2, “7-Azaindole derivatives and their use in the inhibition of c-Jun N-terminal kinase” (Eisai R&D Management Co., Ltd., priority 2008, dated 2012)
# Target: JNK3 (Homo sapiens, UniProt P53779)
# Experiment: JNK3 SPA assay
# Type: biochemical
# Details: 3.33 μM ATP, GST-c-Jun substrate; read-out: IC50 against JNK3
# Protocol: JNK1, JNK2, JNK3—SPA Assay
# JNK1, JNK2, JNK3—SPA Assay • 1. Compound is dissolved in DMSO to a convenient concentration and this is diluted in 10% DMSO to a five times concentrate of the desired starting concentration (frequently 1:100). • 2. 10 μl of 500 mM EDTA is added to alternative wells of the Opti-plate row, which will receive kinase reaction plus DMSO. This creates the negative control. • 3. For the JNK2 and JNK3 assay, compounds are prepared in six 2-fold dilutions with water and each concentration is tested in duplicate. For the JNK1 assay compounds are prepared in four 5-fold dilutions with water which are tested in triplicate. Controls are treated identically. • 4. 20 μl per well of each compound concentration is transferred to an Opti-plate, in duplicate. • 5. 30 μl (JNK2/3 SPA) or 50 μl (JNK1 SPA) of substrate solution (25 mM HEPES pH 7.5, 10 mM magnesium acetate with 3.33 μM ATP (JNK2/3) or 2 μM ATP (JNK1), approximately 7.5 kBq [γ-^33P] ATP, GST-c-Jun, in water) is added to each well. • 6. 50 μl (JNK2/3 SPA) or 30 μl (JNK1 SPA) of kinase solution (JNK in 25 mM HEPES pH 7.5, 10 mM Mg Acetate) is added to each well.
# • 7. The plate is incubated for 30 minutes at room temperature. • 8. 100 μl of bead/stop solution is added to each well (5 mg/ml glutathione-PVT-SPA beads, 40 mM ATP in PBS). • 9. Plates are sealed and incubated for 30 minutes at room temperature, centrifuged for 10 minutes at 2500 g and counted. • 10. The IC50 values are calculated as the concentration of the compound being tested at which the phosphorylation of c-Jun is decreased to 50% of the control value.
# JNK3, sequence (P53779 whole entry, species assumed): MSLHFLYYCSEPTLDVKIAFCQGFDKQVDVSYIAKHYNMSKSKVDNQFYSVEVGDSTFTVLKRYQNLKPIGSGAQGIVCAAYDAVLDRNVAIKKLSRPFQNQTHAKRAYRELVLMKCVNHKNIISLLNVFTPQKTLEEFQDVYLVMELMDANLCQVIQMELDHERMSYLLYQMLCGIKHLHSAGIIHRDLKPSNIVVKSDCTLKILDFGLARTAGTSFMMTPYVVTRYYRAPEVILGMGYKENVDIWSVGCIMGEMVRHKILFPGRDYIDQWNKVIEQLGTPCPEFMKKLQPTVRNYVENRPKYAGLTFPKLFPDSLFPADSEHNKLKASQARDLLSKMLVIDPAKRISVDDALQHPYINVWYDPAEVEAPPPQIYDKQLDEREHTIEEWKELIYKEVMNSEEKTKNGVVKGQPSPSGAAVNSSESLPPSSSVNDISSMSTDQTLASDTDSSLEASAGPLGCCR
row,Structure (SMILES),IC50
1,"Cn1cc(-c2c[nH]c3ncc(C4CCC(C(C)(C)C)CC4)cc23)cn1 (mixture of isomers) [Compound I-4, 5-(4-tert-butylcyclohexyl)-3-(1-methyl-1H-pyrazol-4-yl)-1H-pyrrolo[2,3-b]pyridine]",0.123 µM
2,"CCC1CCC(c2cnc3[nH]cc(-c4cnn(C)c4)c3c2)CC1 (mixture of isomers) [Compound I-22, 5-(4-ethylcyclohexyl)-3-(1-methyl-1H-pyrazol-4-yl)-1H-pyrrolo[2,3-b]pyridine]",0.025 µM
3,"CC1CCCC(c2cnc3[nH]cc(-c4cnn(C)c4)c3c2)C1 (mixture of isomers) [Compound I-32, 3-(1-methyl-1H-pyrazol-4-yl)-5-(3-methylcyclohexyl)-1H-pyrrolo[2,3-b]pyridine]",0.079 µM
4,"CC1CCCCC1c1cnc2[nH]cc(-c3cnn(C)c3)c2c1 (mixture of isomers) [Compound I-33, 3-(1-methyl-1H-pyrazol-4-yl)-5-(2-methylcyclohexyl)-1H-pyrrolo[2,3-b]pyridine]",0.11 µM
5,"Cn1cc(-c2c[nH]c3ncc(C4CCC(c5ccccc5)CC4)cc23)cn1 (mixture of isomers) [Compound I-35, 3-(1-methyl-1H-pyrazol-4-yl)-5-(4-phenylcyclohexyl)-1H-pyrrolo[2,3-b]pyridine]",0.091 µM
6,"CC1CC(c2cnc3[nH]cc(-c4cnn(C)c4)c3c2)CC(C)(C)C1 (mixture of isomers) [Compound I-36, 3-(1-methyl-1H-pyrazol-4-yl)-5-(3,3,5-trimethylcyclohexyl)-1H-pyrrolo[2,3-b]pyridine]",0.257 µM
7,"CN(C)C1CCC(c2cnc3[nH]cc(-c4cnn(CCN5CCOCC5)c4)c3c2)CC1 (mixture of isomers) [Compound I-56, N,N-dimethyl-4-(3-(1-(2-morpholinoethyl)-1H-pyrazol-4-yl)-1H-pyrrolo[2,3-b]pyridin-5-yl)cyclohexanamine]",0.071 µM
8,"Cn1cc(-c2c[nH]c3ncc(C4CCC(CN5CCOCC5)CC4)cc23)cn1 (mixture of isomers) [Compound I-73, 3-(1-Methyl-1H-pyrazol-4-yl)-5-(4-morpholin-4-ylmethyl-cyclohexyl)-1H-pyrrolo[2,3-b]pyridine]",0.074 µM
9,"CCN(CCO)C1CCC(c2cnc3[nH]cc(-c4cnn(C)c4)c3c2)CC1 (mixture of isomers) [Compound I-131, 2-(ethyl(4-(3-(1-methyl-1H-pyrazol-4-yl)-1H-pyrrolo[2,3-b]pyridin-5-yl)cyclohexyl)amino)ethanol]",0.251 µM
10,"CCN(C(C)C)C1CCC(c2cnc3[nH]cc(-c4cnn(C)c4)c3c2)CC1 (mixture of isomers) [Compound I-133, N-ethyl-N-isopropyl-4-(3-(1-methyl-1H-pyrazol-4-yl)-1H-pyrrolo[2,3-b]pyridin-5-yl)cyclohexanamine]",0.468 µM
11,"Cn1cc(-c2c[nH]c3ncc(C4=C[C@H]5O[C@@H]4CC5C(N)=O)cc23)cn1 (mixture of isomers) [Compound I-156, (1R,4R)-5-(3-(1-methyl-1H-pyrazol-4-yl)-1H-pyrrolo[2,3-b]pyridin-5-yl)-7-oxabicyclo[2.2.1]hept-5-ene-2-carboxamide]",1.41 µM
12,"CN[C@@H]1C[C@H]2C=C(c3cnc4[nH]cc(-c5cnn(C)c5)c4c3)C[C@H](C2)C1 (relative stereo) [Compound I-151, trans N-methyl-7-(3-(1-methyl-1H-pyrazol-4-yl)-1H-pyrrolo[2,3-b]pyridin-5-yl)bicyclo[3.3.1]non-6-en-3-amine]",0.347 µM
13,"CC1CC=C(c2cnc3[nH]cc(-c4cnn(C)c4)c3c2)CC1 (stereo not shown) [Compound I-1, 3-(1-methyl-1H-pyrazol-4-yl)-5-(4-methylcyclohex-1-enyl)-1H-pyrrolo[2,3-b]pyridine]",0.018 µM
14,"Cn1cc(-c2c[nH]c3ncc(C4=CCC(C(C)(C)C)CC4)cc23)cn1 (stereo not shown) [Compound I-2, 5-(4-tert-butylcyclohex-1-enyl)-3-(1-methyl-1H-pyrazol-4-yl)-1H-pyrrolo[2,3-b]pyridine]",0.199 µM
15,"FC(F)n1cc(-c2c[nH]c3ncc(C4=CCC(N5CCOCC5)CC4)cc23)cn1 (stereo not shown) [Compound I-5, 3-(1-Difluoromethyl-1H-pyrazol-4-yl)-5-(4-morpholin-4-yl-cyclohex-1-enyl)-1H-pyrrolo[2,3-b]pyridine]",0.339 µM
16,"CCC1CC=C(c2cnc3[nH]cc(-c4cnn(C)c4)c3c2)CC1 (stereo not shown) [Compound I-8, 5-(4-ethylcyclohex-1-enyl)-3-(1-methyl-1H-pyrazol-4-yl)-1H-pyrrolo[2,3-b]pyridine]",0.016 µM
17,"CN(C)C1CCC(c2cnc3[nH]cc(-c4cnn(C)c4)c3c2)CC1 (stereo not shown) [Compound I-9, N,N-dimethyl-4-(3-(1-methyl-1H-pyrazol-4-yl)-1H-pyrrolo[2,3-b]pyridin-5-yl)cyclohexanamine]",0.04 µM

row,Structure (SMILES),IC50
1,"Cn1cc(-c2c[nH]c3ncc(C4CCCC4)cc23)cn1 [Compound I-11, 5-cyclopentyl-3-(1-methyl-1H-pyrazol-4-yl)-1H-pyrrolo[2,3-b]pyridine]",0.132 µM
2,"Cn1cc(-c2c[nH]c3ncc(C4=CCCCC4)cc23)cn1 [Compound I-12, 5-cyclohexenyl-3-(1-methyl-1H-pyrazol-4-yl)-1H-pyrrolo[2,3-b]pyridine]",0.11 µM
3,"Cn1cc(-c2c[nH]c3ncc(C4=CCCCCC4)cc23)cn1 [Compound I-13, (E)-5-cycloheptenyl-3-(1-methyl-1H-pyrazol-4-yl)-1H-pyrrolo[2,3-b]pyridine]",0.126 µM
4,"Cn1cc(-c2c[nH]c3ncc(C4=CCC5(CC4)OCCO5)cc23)cn1 [Compound I-14, 5-(1,4-Dioxa-spiro[4.5]dec-7-en-8-yl)-3-(1-methyl-1H-pyrazol-4-yl)-1H-pyrrolo[2,3-b]pyridine]",0.224 µM
5,"Cn1cc(-c2c[nH]c3ncc(C4=CCC(C)(C)CC4)cc23)cn1 [Compound I-15, 5-(4,4-dimethylcyclohex-1-enyl)-3-(1-methyl-1H-pyrazol-4-yl)-1H-pyrrolo[2,3-b]pyridine]",0.275 µM
6,"Cn1cc(-c2c[nH]c3ncc(C4CCCCCC4)cc23)cn1 [Compound I-17, 5-cycloheptyl-3-(1-methyl-1H-pyrazol-4-yl)-1H-pyrrolo[2,3-b]pyridine]",0.162 µM
7,"Cn1cc(-c2c[nH]c3ncc(C4CCC(C)(C)CC4)cc23)cn1 [Compound I-18, 5-(4,4-dimethylcyclohexyl)-3-(1-methyl-1H-pyrazol-4-yl)-1H-pyrrolo[2,3-b]pyridine]",0.288 µM
8,"Cn1cc(-c2c[nH]c3ncc(C4CCC(=O)CC4)cc23)cn1 [Compound I-20, 4-[3-(1-Methyl-1H-pyrazol-4-yl)-1H-pyrrolo[2,3-b]pyridin-5-yl]-cyclohexanone]",0.229 µM
9,"Cn1cc(-c2c[nH]c3ncc(C4=CCC(C)(C)C=C4)cc23)cn1 [Compound I-21, 5-(4,4-dimethylcyclohexa-1,5-dienyl)-3-(1-methyl-1H-pyrazol-4-yl)-1H-pyrrolo[2,3-b]pyridine]",0.049 µM
10,"Cn1cc(-c2c[nH]c3ncc(C4=CCC(c5ccccc5)CC4)cc23)cn1 (stereo not shown) [Compound I-27, 3-(1-methyl-1H-pyrazol-4-yl)-5-(4-phenylcyclohex-1-enyl)-1H-pyrrolo[2,3-b]pyridine]",0.155 µM
11,"Cn1cc(-c2c[nH]c3ncc(C4=CC(C)(C)CC(C)(C)C4)cc23)cn1 [Compound I-28, 3-(1-methyl-1H-pyrazol-4-yl)-5-(3,3,5,5-tetramethylcyclohex-1-enyl)-1H-pyrrolo[2,3-b]pyridine]",5.5 µM
12,"COC1=C(c2cnc3[nH]cc(-c4cnn(C)c4)c3c2)CCCC1 [Compound I-31, 5-(2-Methoxy-cyclohex-1-enyl)-3-(1-methyl-1H-pyrazol-4-yl)-1H-pyrrolo[2,3-b]pyridine]",0.48 µM
13,"Cn1cc(-c2c[nH]c3ncc(C4CC(C)(C)CC(C)(C)C4)cc23)cn1 [Compound I-34, 3-(1-methyl-1H-pyrazol-4-yl)-5-(3,3,5,5-tetramethylcyclohexyl)-1H-pyrrolo[2,3-b]pyridine]",2.14 µM
14,"CN1CCCN([C@H]2CC[C@@H](c3cnc4[nH]cc(-c5cnn(C)c5)c4c3)CC2)CC1 [Compound I-38, 5-((1s,4s)-4-(4-methyl-1,4-diazepan-1-yl)cyclohexyl)-3-(1-methyl-1H-pyrazol-4-yl)-1H-pyrrolo[2,3-b]pyridine]",0.098 µM
15,"Cn1cc(-c2c[nH]c3ncc(C4CCC(N5CCC5)CC4)cc23)cn1 (stereo not shown) [Compound I-41, 5-(4-(azetidin-1-yl)cyclohexyl)-3-(1-methyl-1H-pyrazol-4-yl)-1H-pyrrolo[2,3-b]pyridine]",0.103 µM
16,"Cn1cc(-c2c[nH]c3ncc(C4CCC(F)(F)CC4)cc23)cn1 [Compound I-42, 5-(4,4-difluorocyclohexyl)-3-(1-methyl-1H-pyrazol-4-yl)-1H-pyrrolo[2,3-b]pyridine]",0.138 µM
17,"Cn1cc(-c2c[nH]c3ncc([C@H]4CC[C@H](N5CCCCC5)CC4)cc23)cn1 [Compound I-45, 3-(1-methyl-1H-pyrazol-4-yl)-5-((1r,4r)-4-(piperidin-1-yl)cyclohexyl)-1H-pyrrolo[2,3-b]pyridine]",0.166 µM
